Laboratory results reported in the NIST ThermoML archive (doi:10.1016/j.tca.2016.03.002).

Tests used:
[1] = xn = mol fraction of the nth substance listed; conditions: 100 kPa, Liquid, x1 = 1; for viscosity: Capillary tube (Ostwald / Ubbelohde) method; for mass density: Vibrating tube method
[2] = relative permittivity at various frequencies (dimensionless); xn = mol fraction of the nth substance listed; conditions: 100 kPa, Liquid, Frequency=30 MHz, Parallel plate capacitor, x1 = 1
[3] = refractive index (Na D-line) (dimensionless); xn = mol fraction of the nth substance listed; conditions: 100 kPa, Liquid, Standard Abbe refractometry, x1 = 1
[4] = refractive index (Na D-line) (dimensionless); conditions: 100 kPa, Liquid, Standard Abbe refractometry
[5] = 100 kPa, Liquid; for viscosity: Capillary tube (Ostwald / Ubbelohde) method; for mass density: Vibrating tube method
[6] = relative permittivity at various frequencies (dimensionless); conditions: 100 kPa, Liquid, Frequency=30 MHz, Parallel plate capacitor

CO [methanol] + NC1CCCCC1
Conditions	mass density, [1] [kg/m3]	refractive index, [3]	relative permittivity, [2]	viscosity, [1] [mPa·s]
293.15 K	791.414	1.32866	33.6	0.585
298.15 K	786.716	1.32682	32.62	0.545
303.15 K	782.032	1.32444	31.67	0.508

NC1CCCCC1 [cyclohexylamine]
Conditions	mass density, [5] [kg/m3]	refractive index, [4]	relative permittivity, [6]	viscosity, [5] [mPa·s]
293.15 K	866.86	1.45934	4.65	2.142
298.15 K	862.315	1.45663	4.56	1.908
303.15 K	857.774	1.45325	4.47	1.697

CO [methanol]
Conditions	mass density, [5] [kg/m3]	refractive index, [4]	relative permittivity, [6]	viscosity, [5] [mPa·s]
293.15 K	791.414	1.32866	33.6	0.585
298.15 K	786.716	1.32682	32.62	0.545
303.15 K	782.032	1.32444	31.67	0.508
